Results as given in patent US20250276008A1, “USE OF LITHIUM-CONTAINING COMPOUNDS IN TREATMENT OF TUMORS” (Institute of Basic Medical Sciences Chinese Academy of …, priority 2023, published 2025).

Assays:
4T1 breast cancer [1] = details: 4T1 tumor-bearing mouse model
Excerpt: (§1) The present inventors further established MC38 colon cancer and 4T1 breast cancer tumor-bearing mouse models.

MC38 colon cancer [2] = details: MC38 tumor-bearing mouse model
Excerpt: as §1

CD8^+ T cells [3] = test system: CD8^+ T cells
MCT1 = test: Localization of MCT1 to mitochondria (Western blot of isolated T cell mitochondria); format: cell-based, mouse; details: Western blot of isolated T cell mitochondria
Excerpt: The inventor further explored the molecular mechanism by which LC led to the shunting of lactic acid to mitochondria. Entry of lactic acid into mitochondria requires the localization of MCT1 to the inner mitochondrial membrane IMM (Redox Biol. 2020 August;35:101454). […] MCT1 is generally recognized as a secreted protein with an endoplasmic reticulum-targeting sequence that enters the endoplasmic reticulum and localizes to the plasma membrane. We hypothesized that LC could induce MCT1 variants with mitochondrial targeting sequences (MTSs). However, no MCT1 variant was found in LC-treated T cells by sequencing analysis, and only one transcript of MCT1 was found after alignment analysis on NCBI. A MTS was found at the N-terminus of MCT-1protein by protein sequence analysis, which was present downstream of the endoplasmic reticulum targeting sequence, forming a double-peak chimeric sequence. This double-peak sequence may direct MCT-1 to target the endoplasmic reticulum or mitochondria, and may be regulated by serine/threonine phosphorylation of PKA or PKC (Avadhani, N. G. 2011. FEBS J 278, 4218-4229).

lysosomal V-ATPase = test: Lysosomal pH, Atp6v0c, H+ (deuterium) flow and Li+ accumulation in CD8+ T cells; format: cell-based, mouse
Procedure: (§2) In order to better track the flow of H^+, ^2D (deuterium)-acetic acid (DAC) or ^2D-sulfuric acid (D2SO4) was added to the culture medium of CD8^+ T cells. […] The K-loop of V-ATPase is located in the hydrophobic lipid bilayer and is essential for the pumping of cytosolic H^+ into the lysosomal lumen. Li^+ has been reported to bind to the K-loop of V-ATPase in Enterococcus hirde and induce deprotonation of the Glul39 residue (J. Am. Chem. Soc. 2011.133. 2860-2863).

OVA-B16 melanoma cells = test system: OVA-B16 melanoma cells
Procedure: In order to further verify the anti-tumor immune response specific for CD8^+ T cells induced by LC, on the basis of the established tumor-bearing mice above (Example 7), 1×10^6 CD45.1 OT-1 T tumor-specific CD8^+ T cells were sorted and adoptively transferred through the tail vein to wild-type C57 mice 24 hours before the subcutaneous tumor inoculation. After 24 hours, 1×10^5 OVA-B16 melanoma cells were subcutaneously inoculated into the right back of the mice.

[4] = patients with bipolar disorder; J Clin Psychopharmacol. 2017; cited from earlier work
[5] = during administration of lithium carbonate 75 mg/kg by gavage
Procedure: (§3) The proportion of tumor-infiltrating human CD8^+ T cells was analyzed on Day 18.

CD8^+ T cells [6] = test system: CD8^+ T cells; remark: listed apart in the source
Excerpt: The lactic acid that enters the mitochondria is further converted into pyruvic acid with the participation of lactate dehydrogenase to enter the TCA cycle for oxidative metabolism. LDHa and LDHb are two major lactate dehydrogenase genes that encode LDHa (also known as M subunit) and LDHb (H subunit). The five LDH isozymes from LDH1 to LDH5 consist of M and H subunits, and are 4H, 3H1M, 2H2M, 1H3M and 4M, respectively.
Furthermore, this study analyzed the molecular mechanism bu which LC promotes the localization and expression of LDHb in mitochondria. […] TFEB is a major regulator of lysosomal functions. […] In addition, Tfeb^fl/fl Lck^cre mice were constructed in this study, and CD8^+ T cells were isolated from the spleen of mice to repeat the above experiments.

mouse melanoma B16 cells = details: 75 mg/kg by gavage
Procedure: Lithium carbonate is an inorganic compound with the chemical formula Li2CO3 and a molecular weight of 73.89. Lithium carbonate was prepared as follows: • 1) 1.000 g of lithium carbonate (Sigma, WXBC5202V) was weighed and placed in a beaker containing 50 mL of double-distilled water, and the volume was brought to 100 mL with double-distilled water. • 2) The mixture was mixed well in an ice water bath for 2 hours to fully dissolve the lithium carbonate. • 3) The solution was aliquoted into 50 mL centrifuge tubes and stored at 4° C.
(§4) Model establishment: Cultured mouse melanoma B16 cells were resuspended in PBS buffer and inoculated subcutaneously at 1×10^5 cells/mouse into the right back of the mouse, with an injection volume of 50 μL. The needle of a 1 ml syringe was inserted from the right thigh of the mouse, penetrating under the skin to the back, to inject 50 μL of tumor cell suspension subcutaneously to the mouse to form a translucent lump of skin. Care should be taken not to puncture the skin of the mouse. The needle was quickly withdrawn after the injection, so as to avoid any leaking of tumor cells when withdrawing the needle, which would result in tumorigenesis of multiple subcutaneous tumors. Tumor cells were inoculated as soon as possible to maintain cell viability.

4T1 breast cancer [7] = test system: 4T1 breast cancer
Procedure: as §4
(§5) The present inventor further established MC38 colon cancer and 4T1 breast cancer tumor-bearing mouse models.

MC38 colon cancer [8] = test system: MC38 colon cancer
Procedure: as §4, §5

PKCθ = test system: PKCθ
Excerpt: PKCθ is a new member of the PKC family, which is activated by DAG and is widely expressed in T lymphocytes. […] This enzyme has PLC activity and catalyzes the production of DAG from lysosomal phospholipids.

human A375 tumor cells = details: humanized NSG mice
Procedure: Model establishment: NOD.Cg-PrkdcIl2rg<tm1Wjl>SzJ (NSG) mice were irradiated with X-ray irradiation (2 Gy). 10^7 PBMCs from healthy volunteers were adopted into NSG mice through the tail vein within 24 hours. After 24 hours, human A375 tumor cells were digested and counted, 4×10^5 of which were inoculated subcutaneously into the right back of NSG mice, and tumorigenesis generally occurred in about seven days.
as §3

CD8^+ T cells [9] = test: Cytosolic Ca2+ / lysosomal Ca2+ release in CD8+ T cells; format: cell-based, mouse
Excerpt: Next, we investigated the molecular mechanism by which LC activated TFEB in CD8^+ T cells. It has been reported (Nat Cell Biol. 2015 March;17(3):288-99) that in addition to being able to degrade exogenous or endogenous biomacromolecules, lysosomes, like endoplasmic reticulum and mitochondria, are also storage sites for Ca^2+ and can initiate the transduction of calcium-related downstream signals.
as §2

O=C([O-])[O-].[Li+].[Li+] [LC, lithium carbonate]
therapeutic effect of an anti-PD-1 antibody (tumor size, survival rate) (4T1 breast cancer [1]): enhance
therapeutic effect of an anti-PD-1 antibody (tumor size, survival rate) (MC38 colon cancer [2]): enhance
level of extracellular lactic acid (CD8^+ T cells [3]): reduced
uptake of exogenous lactic acid by CD8^+ T cells (CD8^+ T cells [3]): did not affect
lactic acid in mitochondria (CD8^+ T cells [3]; 2D-lactic acid tracing, 2 hours after treating with LC): highly accumulated
elevation in lactic acid levels in activated CD8^+ T cells caused by exogenous lactic acid (CD8^+ T cells [3]; 13C-lactic acid tracing): counteracted
mitochondrial m+3 lactic acid, nuclear m+3 lactic acid and lactyl-CoA (CD8^+ T cells [3]; 13C-lactic acid tracing, after 24 hours): almost undetectable
oxidation products of lactic acid (m+2 citric acid, m+4 malic acid) (CD8^+ T cells [3]; after 24 hours): more oxidation products of lactic acid were detected
levels of intracellular lactic acid and histone Kla (CD8^+ T cells [3]; after 24 hours, versus control group): significantly lower
expression / localization of MCT1 in mitochondria (MCT1): significantly increased
expression of lysosome-related gene Atp6v0c (lysosomal V-ATPase): significantly decreased
lactylation of the Atp6v0c gene (ChIP-seq) (lysosomal V-ATPase): disappeared
entry of deuterium ions into the lysosomal lumen (lysosomal V-ATPase; 2D-acetic acid or 2D-sulfuric acid added to culture medium): significantly inhibited
lysosomal pH (lysosomal V-ATPase; LA-treated cells, increased from 4.4 within 30 minutes): 5.9
tumor growth in mice (OVA-B16 melanoma cells; OVA-B16): inhibit
expression of the effectors IFN-γ and CD107a (OVA-B16 melanoma cells; OVA-B16, Day 18): increase
number of tumor-infiltrating CD8^+ T cells (OVA-B16 melanoma cells; OVA-B16, OT-1 adoptive transfer model, LC 75 mg/kg gavage, Day 18): increase
efficacy of T cell adoptive therapy (OVA-B16 melanoma cells; OVA-B16 melanoma tumor-bearing mice): enhances
lactic acid levels in the cerebrospinal fluid [4]: significantly down-regulate
blood lithium concentration of mice (monitored and maintained) [5]: 1 mM
expression of LDHa (CD8^+ T cells [6]): up-regulated
expression of LDHb (CD8^+ T cells [6]): up-regulated
expression and nuclear localization of TFEB (CD8^+ T cells [6]; results not shown): significantly up-regulated
growth of B16 tumors (mouse melanoma B16 cells; 5 doses from Day 7): effectively inhibit
survival of mice (mouse melanoma B16 cells; B16): prolong
number of tumor-infiltrating CD8^+ T cells (mouse melanoma B16 cells; B16, 5 doses from Day 7, Day 18): increase
expression of the effectors IFN-γ and CD107a (mouse melanoma B16 cells; B16, Day 18): increase
expression of the effectors IFN-γ and CD107a (4T1 breast cancer [7]; 4T1): increase
survival of mice (4T1 breast cancer [7]; 4T1): prolong
number of tumor-infiltrating CD8^+ T cells (4T1 breast cancer [7]; 4T1, treated as B16 model): increase
growth of 4T1 breast cancer (4T1 breast cancer [7]; mouse, in vivo): effectively inhibit
expression of the effectors IFN-γ and CD107a (MC38 colon cancer [8]; MC38): increase
survival of mice (MC38 colon cancer [8]; MC38): prolong
number of tumor-infiltrating CD8^+ T cells (MC38 colon cancer [8]; MC38, treated as B16 model): increase
growth of MC38 colon cancer (MC38 colon cancer [8]; mouse, in vivo): effectively inhibit
DAG levels in CD8^+ T cells (PKCθ): increased
expression of acid sphingomyelinase (ASM) in lysosomes (PKCθ): increased
localization of PKCθ to lysosomes (PKCθ): could induce
PKCθ activation (PKCθ; ASM expression interfered with shASM): could not induce
tumor growth in mice (human A375 tumor cells): inhibited
infiltration of human CD8^+ T cells (human A375 tumor cells; LC 75 mg/kg gavage, Day 18): significantly increased
expression of Mcoln2 (CD8^+ T cells [9]): increased
cytosolic Ca^2+ concentrations (CD8^+ T cells [9]; results not shown): increased
